Measured values reported in US8258125B2, “HDL-boosting combination therapy complexes” (priority 2008, dated 2012).
“Also recorded” adds a separate entry of the source. Like-named read-outs stand apart in the source and are kept apart here.

Legend:
Golden Syrian hamster = experiment: Evaluation of antilipidemic property in hamster animal model (2-week daily oral gavage); assay type: in vivo; settings: for LDL-C reduced by: 8-160 mg range; for raising HDL-C (in words): monotherapy; for reducing LDL-C by: repeat experiment, 5-20 mg dose range
Excerpt: Evaluation of antilipidemic property in animal. Golden Syrian hamster, 8-wk old (85-100 g) (Bio®F1B, Bio Breeders, Inc., Watertown, Mass.) was the animal model chosen for this study because of its similarities with humans in lipoprotein metabolism and atherosclerosis Moreover, the hamster has plasma cholesteryl ester transfer protein (CETP) similar to humans. Dietary fat saturation affects apolipoprotein gene expression and high-density lipoprotein size distribution in golden Syrian hamsters. The animals housed four per cage were fed […] Supreme Fortified Hamster diet ([…] Products, Inc. Chilton, Wis.), with one part ratio of Heath High Energy suet (Heath Mfg., Cooperville, Mich.); water ad libitum. The animals were fed this diet for 1 week, and then given the drug treatment for a 2-week duration. Drugs were administered by daily oral gavage using 4:6 PEG/Cremaphore suspension vehicle for the water-insoluble drugs (e.g., atorvastatin, lovastatin, simvastatin, and the fibrates); the water-soluble drugs (dihydroxy-acid salts, pravastatin) were dissolved in water. Equivalent doses, based on a 70 kg person, were administered in the hamster. […] Thus, the calculated final dose for a 100-gm hamster is 0.143 mg as well ([…] X a factor of “10”), formulated in a 0.25 ml solution for oral gavage administration. […] Body weights were recorded prior to drug administration and every other day during the test duration. At termination, blood was collected from anesthetized hamsters and the serum is separated by centrifugation. Total serum cholesterol was assayed using the Hitachi Diagnostics enzymatic kit for the determination of total cholesterol, LDL cholesterol, HDL cholesterol, and triglyceride (Analysis performed by: Lipid Analysis, Inc., Springfield, Ill.).

[1] = tested on: Syrian Golden hamsters (F1B strain); experiment: Lipid profile in Syrian Golden hamsters on hypercholesterolemic diet, combo drugs vs Crestor; assay type: in vivo; settings: for effective doses found in this study: in combination, mg/70 kg man
Procedure: Crestor is a new synthetic statin and considered “superstatin” because of its effectiveness at low doses. In clinical studies, Crestor is now found to be the new gold standard among the statins: a 5 mg Crestor dose is equivalent to 20 mg Lipitor, 40 mg Zocor, 80 mg Mevacor or Pravachol. Thus, the drug combination of Compound I and Compound II was compared with Crestor. The animal model was Syrian Golden hamsters (F1B strain, BioBreeders, Fitchburg Mass.). The animals approximately 8-10 weeks of age were fed a non-purified chow-based hypercholesterolemic diet (HCD) containing 10% coconut oil and 0.1% cholesterol by weight for 2 weeks prior to initiation of the experimental treatments, and remain on this diet for the remainder of the study. Compounds I and II were administered by oral gavage (0.2 mL), once a day for 14 days. At day 14, blood samples were obtained after an overnight fast.

Water solubility = assay type: physicochemical
[2] = background description; cited from earlier work
[3] = tested on: Rattus norvegicus, outbred Sprague Dawley; settings: combination, rat 14 days, mg/70 kg man
Procedure: Age range at initiation of study was 8-14. […] Quarantine/acclimation was one week. Animals were randomized to groups based on weight. Number per cage was 2-3. Environmental conditions: Conventional microisolator caging. Room temperature was maintained between 19 and 23° C. Relative humidify was maintained at 55-80%. The light/dark cycle was maintained on a 12 hour cycle. Animals were exposed to the test substance daily for 14 days (2 weeks); and the doses were administered by gavage.
Gross necropsy was performed in the animals in the study. […] Collected tissues were placed in formalin overnight and then sectioned and cassetted the following day.
Blood samples were collected by cardiac puncture, 24 hours after the last treatment, as part of the necropsy protocol. Parameters examined include hematocrit (HCT), hemoglobin (Hgb), total erythrocyte count (RBC), total white cell count (WBC), differential count, and platelet estimate; calculated mean corpuscular volume (MCV), mean corpuscular hemoglobin (MCH), and mean corpuscular hemoglobin concentration (MCHC).
Also, at 16-18 hours after the last treatment, animals were placed in metabolic cages and urine was collected (just prior to necropsy). The urine samples were tested for presence of myoglobin.
Clinical Chemistry. Blood samples were collected by cardiac puncture, 24 hours after the last treatment, as part of the necropsy protocol. […]

[4] = Equivalent Dose 8 mg (per 70 kg man), oral gavage 2 weeks, serum
[5] = Equivalent Dose 160 mg (per 70 kg man), oral gavage 2 weeks, serum
[6] = repeat comparison, Equivalent Dose 5.0 mg
[7] = repeat comparison, Equivalent Dose 10.0 mg
[8] = repeat comparison, Equivalent Dose 20.0 mg
[9] = compared with the Compound I and II combination

For `CC[C@H](C)C(=O)O[C@H]1C[C@@H](C)C=C2C=C[C@H](C)[C@H](CC[C@@H](O)C[C@@H](O)CC(=O)[O-])[C@H]21.[Na+]` [Compound I], the “LDL-C reduced by” value (Golden Syrian hamster) was 41.4-59.2%, the “% Decrease On: HDL-C” value (Golden Syrian hamster; Equivalent Dose 8 mg) was 25.2% and the “% Decrease On: LDL-C” value (Golden Syrian hamster; Equivalent Dose 8 mg) was 41.4%. The “% Decrease On: Triglyceride” value (Golden Syrian hamster; Equivalent Dose 8 mg) was 28.6%, the “% Decrease On: Total Cholesterol” value (Golden Syrian hamster; [4]) was 30.3% and the “% Decrease On: HDL-C” value (Golden Syrian hamster; Equivalent Dose 160 mg) was 32.2%. For the same compound, the “% Decrease On: LDL-C” value (Golden Syrian hamster; Equivalent Dose 160 mg) was 29.2%, the “% Decrease On: Triglyceride” value (Golden Syrian hamster; Equivalent Dose 160 mg) was 33.7% and the “% Decrease On: Total Cholesterol” value (Golden Syrian hamster; [5]) was 40.7%. For the same compound, the “effective at a dose as low as” value (Golden Syrian hamster; equivalent dose, antilipidemic activity) was 5 mg, the “raising HDL-C (in words)” value (Golden Syrian hamster) was “not effective in raising HDL-C” and the “% Decrease On: HDL-C” value (Golden Syrian hamster; [6]) was 5.6%. The “% Decrease On: LDL-C” value (Golden Syrian hamster; [6]) was 14.7%, the “% Decrease On: Total Cholesterol” value (Golden Syrian hamster; [6]) was 14.8% and the “% Decrease On: Triglyceride” value (Golden Syrian hamster; [6]) was 4.5%. The “% Decrease On: HDL-C” value (Golden Syrian hamster; [7]) was 12.4%, the “% Decrease On: LDL-C” value (Golden Syrian hamster; [7]) was 23.7% and the “% Decrease On: Total Cholesterol” value (Golden Syrian hamster; [7]) was 12.6%. The “% Decrease On: Triglyceride” value (Golden Syrian hamster; [7]) was 6.8%, the “% Decrease On: HDL-C” value (Golden Syrian hamster; [8]) was 20.7% and the “% Decrease On: LDL-C” value (Golden Syrian hamster; [8]) was 22.4%. The “% Decrease On: Total Cholesterol” value (Golden Syrian hamster; [8]) was 20.9%, the “% Decrease On: Triglyceride” value (Golden Syrian hamster; [8]) was 23.6% and the “reducing LDL-C by” value (Golden Syrian hamster) was 22.4-23.7%. For the same compound, the “effective doses found in this study” value [1] was 1 to 3 mg.

With `O=C(O)c1cccnc1` [niacin, 3-pyridine carboxylic acid] the solubility in water (Water solubility) was “not soluble in water”.

For `CCC(C)(C)C(=O)O[C@H]1C[C@@H](C)C=C2C=C[C@H](C)[C@H](CC[C@@H]3C[C@@H](O)CC(=O)O3)[C@H]21` [Zocor, Simvastatin], the “% Decrease On: HDL-C” value (Golden Syrian hamster; Equivalent Dose 8 mg) was 12.6%, the “% Decrease On: LDL-C” value (Golden Syrian hamster; Equivalent Dose 8 mg) was 5.4% and the “% Decrease On: Triglyceride” value (Golden Syrian hamster; Equivalent Dose 8 mg) was 23.4%. The “% Decrease On: Total Cholesterol” value (Golden Syrian hamster; [4]) was 9.5%, the “% Decrease On: HDL-C” value (Golden Syrian hamster; Equivalent Dose 160 mg) was 30.7% and the “% Decrease On: LDL-C” value (Golden Syrian hamster; Equivalent Dose 160 mg) was 54.4%. For the same compound, the “% Decrease On: Triglyceride” value (Golden Syrian hamster; Equivalent Dose 160 mg) was 43.0% and the “% Decrease On: Total Cholesterol” value (Golden Syrian hamster; [5]) was 40.7%.

With `CC(C)c1c(C(=O)Nc2ccccc2)c(-c2ccccc2)c(-c2ccc(F)cc2)n1CC[C@@H](O)C[C@@H](O)CC(=O)O` [Lipitor, Atorvastatin] the “LDL-C reduced by” value (Golden Syrian hamster) was 28.5-54.4%, the “% Decrease On: HDL-C” value (Golden Syrian hamster; Equivalent Dose 8 mg) was 33.3% and the “% Decrease On: LDL-C” value (Golden Syrian hamster; Equivalent Dose 8 mg) was 28.5%. For the same compound, the “% Decrease On: Triglyceride” value (Golden Syrian hamster; Equivalent Dose 8 mg) was 35.8%, the “% Decrease On: Total Cholesterol” value (Golden Syrian hamster; [4]) was 28.6% and the “% Decrease On: HDL-C” value (Golden Syrian hamster; Equivalent Dose 160 mg) was 30.7%. The “% Decrease On: LDL-C” value (Golden Syrian hamster; Equivalent Dose 160 mg) was 54.4%, the “% Decrease On: Triglyceride” value (Golden Syrian hamster; Equivalent Dose 160 mg) was 53.0% and the “% Decrease On: Total Cholesterol” value (Golden Syrian hamster; [5]) was 43.0%. For the same compound, the “raising HDL-C (in words)” value (Golden Syrian hamster) was “not effective in raising HDL-C; also recorded: did not show any increase in HDL-C”, the “% Decrease On: HDL-C” value (Golden Syrian hamster; [7]) was 20.7% and the “% Decrease On: LDL-C” value (Golden Syrian hamster; [7]) was 17.9%. The “% Decrease On: Total Cholesterol” value (Golden Syrian hamster; [7]) was 18.2%, the “% Decrease On: Triglyceride” value (Golden Syrian hamster; [7]) was 5.0% and the “% Decrease On: HDL-C” value (Golden Syrian hamster; [8]) was 15.9%. For the same compound, the “% Decrease On: LDL-C” value (Golden Syrian hamster; [8]) was 8.9%, the “% Decrease On: Total Cholesterol” value (Golden Syrian hamster; [8]) was 12.3% and the “% Decrease On: Triglyceride” value (Golden Syrian hamster; [8]) was 4.8%. The “reducing LDL-C by” value (Golden Syrian hamster) was 8.9-17.9%.

For `CC[C@H](C)C(=O)O[C@H]1C[C@@H](C)C=C2C=C[C@H](C)[C@H](CC[C@@H]3C[C@@H](O)CC(=O)O3)[C@H]21` [Mevacor, Lovastatin], the “% Decrease On: HDL-C” value (Golden Syrian hamster; Equivalent Dose 8 mg) was 20.4%, the “% Decrease On: LDL-C” value (Golden Syrian hamster; Equivalent Dose 8 mg) was 22.4% and the “% Decrease On: Triglyceride” value (Golden Syrian hamster; Equivalent Dose 8 mg) was 21.8%. For the same compound, the “% Decrease On: Total Cholesterol” value (Golden Syrian hamster; [4]) was 19.4%, the “% Decrease On: HDL-C” value (Golden Syrian hamster; Equivalent Dose 160 mg) was 26.7% and the “% Decrease On: LDL-C” value (Golden Syrian hamster; Equivalent Dose 160 mg) was 54.4%. For the same compound, the “% Decrease On: Triglyceride” value (Golden Syrian hamster; Equivalent Dose 160 mg) was 34.4%, the “% Decrease On: Total Cholesterol” value (Golden Syrian hamster; [5]) was 36.6% and the “raising HDL-C (in words)” value (Golden Syrian hamster) was “did not show any increase in HDL-C”. The solubility in water [2] was “insoluble in water” and the solubility in water (Water solubility) was “not water-soluble”.

For `CC(C)(Oc1ccc(CCNC(=O)c2ccc(Cl)cc2)cc1)C(=O)[O-].[Na+]` [Compound III], the “maximum tolerated dose (MTD)” value [3] was 10,000 mg and the “effective doses found in this study” value [1] was 30 to 40 mg.

With `CC[C@H](C)C(=O)O[C@H]1C[C@H](O)C=C2C=C[C@H](C)[C@H](CC[C@@H](O)C[C@@H](O)CC(=O)O)[C@H]21` [Pravachol, Pravastatin] the “% Decrease On: HDL-C” value (Golden Syrian hamster; Equivalent Dose 8 mg) was 20.4%, the “% Decrease On: LDL-C” value (Golden Syrian hamster; Equivalent Dose 8 mg) was 29.9% and the “% Decrease On: Triglyceride” value (Golden Syrian hamster; Equivalent Dose 8 mg) was 18.8%. For the same compound, the “% Decrease On: Total Cholesterol” value (Golden Syrian hamster; [4]) was 22.4%, the “% Decrease On: HDL-C” value (Golden Syrian hamster; Equivalent Dose 160 mg) was 17.3% and the “% Decrease On: LDL-C” value (Golden Syrian hamster; Equivalent Dose 160 mg) was 33.3%. The “% Decrease On: Triglyceride” value (Golden Syrian hamster; Equivalent Dose 160 mg) was 25.9%, the “% Decrease On: Total Cholesterol” value (Golden Syrian hamster; [5]) was 23.0% and the “raising HDL-C (in words)” value (Golden Syrian hamster) was “did not show any increase in HDL-C”.

For `CC(C)c1nc(N(C)S(C)(=O)=O)nc(-c2ccc(F)cc2)c1/C=C/[C@@H](O)C[C@@H](O)CC(=O)O` [Crestor], the “HDL level (in words)” value [1, 9] was “did not boost HDL” and the “controlling cholesterol and LDL (in words)” value [1, 9] was “less effective in controlling cholesterol and LDL”.
